Results: patent US10508120B2, “TYK2 inhibitors and uses thereof” (Nimbus Lakshmi, Inc., priority 2017, dated 2019)
pKd: −log10 of the molar value. Like-named read-outs stand apart in the source and are kept apart here.

Tests used:
JAK2 kinase domain (JH1) = JAK2 kinase domain (JH1) (Homo sapiens (Human), UniProt O60674); experiment: JAK2 Radioactive Kinase Assay; assay type: biochemical; conditions: for inhibition at 10 µM: read-out: JAK2 JH1% Inhibition @ 10 μM
How it was run: (§1)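 Compounds were tested at a single concentration of 10 μM in a radiometric kinase format against each isolated kinase domain. Activity is reported as percent inhibition at that concentration.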

Tyk2 kinase domain (DH1) = Tyk2 kinase domain (DH1) (Homo sapiens (Human), UniProt P29597); experiment: Tyk2 Radioactive Kinase Assay; assay type: biochemical; conditions: for inhibition at 10 µM: read-out: Tyk2 JH1% Inhibition @ 10 μM
Chain of Tyk2 kinase domain (DH1) (P29597 897-1176): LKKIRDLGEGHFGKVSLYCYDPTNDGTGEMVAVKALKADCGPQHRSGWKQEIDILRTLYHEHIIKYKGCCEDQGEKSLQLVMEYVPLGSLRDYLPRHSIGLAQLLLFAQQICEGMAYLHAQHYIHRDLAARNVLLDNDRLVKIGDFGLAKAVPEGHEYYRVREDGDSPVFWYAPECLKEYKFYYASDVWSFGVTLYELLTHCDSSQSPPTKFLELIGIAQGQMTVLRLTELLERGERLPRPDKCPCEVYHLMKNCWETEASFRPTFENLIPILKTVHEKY
How it was run: as §1

[1] = biological target: human TYK2 (JH2domain-pseudokinase) (Homo sapiens (Human), UniProt P29597); experiment: TYK2 JH2 Domain Binding Assay (KINOMEscan)
Chain of human TYK2 (JH2domain-pseudokinase) (P29597 556-888): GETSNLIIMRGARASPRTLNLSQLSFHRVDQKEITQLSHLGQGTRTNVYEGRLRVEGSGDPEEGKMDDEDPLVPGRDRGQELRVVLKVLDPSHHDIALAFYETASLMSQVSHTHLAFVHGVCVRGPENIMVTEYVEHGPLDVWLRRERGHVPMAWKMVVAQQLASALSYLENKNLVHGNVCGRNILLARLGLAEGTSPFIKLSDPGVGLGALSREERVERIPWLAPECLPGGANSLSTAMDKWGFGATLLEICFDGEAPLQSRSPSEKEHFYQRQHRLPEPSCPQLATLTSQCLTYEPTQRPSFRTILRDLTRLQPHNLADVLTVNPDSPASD
How it was run: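 Competition binding of an NFkB-DBD fusion of human TYK2 JH2 (G556–D888), expressed in HEK293 and used as crude extract at <0.1 nM, against immobilized ligand beads; 1 h at room temperature in PBS/Tween/DTT/BSA buffer, 0.9% DMSO.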

Chain of JAK2 kinase domain (JH1) (O60674 849-1124): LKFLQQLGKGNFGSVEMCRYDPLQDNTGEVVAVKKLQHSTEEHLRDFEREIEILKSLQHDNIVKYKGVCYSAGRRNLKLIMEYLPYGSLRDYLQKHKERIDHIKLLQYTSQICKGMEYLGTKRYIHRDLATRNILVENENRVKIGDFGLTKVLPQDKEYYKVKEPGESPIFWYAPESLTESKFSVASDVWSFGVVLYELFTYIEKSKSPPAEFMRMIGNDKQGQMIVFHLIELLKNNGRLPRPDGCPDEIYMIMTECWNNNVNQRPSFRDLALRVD

Row | Compound | inhibition at 10 µM (JAK2 kinase domain (JH1); 10 μM compound, 10 μM ATP) [%] | inhibition at 10 µM (Tyk2 kinase domain (DH1); 10 μM compound, 10 μM ATP) [%] | pKd [1] | JAK2 JH1% Inhibition @ 10 μM (JAK2 kinase domain (JH1); compound at 10 μM, ATP 10 μM) | Tyk2 JH1% Inhibition @ 10 μM (Tyk2 kinase domain (DH1); compound at 10 μM, ATP 10 μM) | inhibition at 10 µM (JAK2 kinase domain (JH1); compound at 10 μM, ATP 10 μM) [%] | inhibition at 10 µM (Tyk2 kinase domain (DH1); compound at 10 μM, ATP 10 μM) [%]
1 | CNc1cc(Nc2cccn(C3CCCCC3)c2=O)nc2c(C(=O)N[C@H]3CC[C@H]3O)cnn12 [I-942] | < 50 | < 50 | > 9.70 |  |  |  | 
2 | CNc1cc(Nc2cccc([C@H]3CCCOC3)n2)nc2c(C(=O)N[C@@H]3COC[C@@H]3O)cnn12 [I-691] |  |  | 8.00 to 9.00 | A (percent inhibition at 10 μM lower than 50) | A (percent inhibition at 10 μM lower than 50) |  | 
3 | CNc1cc(Nc2cc(Cl)cn([C@@H]3CCCOC3)c2=O)nc2c(C(=O)N[C@H]3[C@@H]4COC[C@@H]43)cnn12 [I-799] |  |  | 9.00 to 9.70 |  |  | < 50 | < 50
4 | CNc1cc(Nc2cccn([C@@H]3CCCOC3)c2=O)nc2c(C(=O)N[C@H]3CCC[C@H](O)C3)cnn12 [I-781] |  |  | > 9.70 | A (percent inhibition at 10 μM lower than 50) | A (percent inhibition at 10 μM lower than 50) |  | 
5 | CNc1cc(Nc2cccn(C3CCCOC3)c2=O)nc2c(C(=O)NCC(C)(C)CO)cnn12 (stereo not drawn) [I-571] |  |  | > 9.70 |  |  | < 50 | < 50
6 | CNc1cc(Nc2cccn(-c3ncccc3F)c2=O)nc2c(C(=O)NC[C@H](C)CO)cnn12 [I-868] | < 50 | < 50 | > 9.70 |  |  |  | 
7 | CNc1cc(Nc2cccn([C@@H]3C[C@H]3F)c2=O)nc2c(C(=O)NC3CC3)cnn12 [I-788] |  |  | > 9.70 |  |  | < 50 | < 50
8 | CNc1cc(Nc2cccn(C3CC4(COC4)C3)c2=O)nc2c(C(=O)N[C@H]3CC[C@H]3O)cnn12 [I-763] |  |  | > 9.70 |  |  | < 50 | < 50
9 | CNc1cc(Nc2cccn(-c3ccccc3F)c2=O)nc2c(C(=O)NC[C@@H](C)CO)cnn12 [I-1076] | < 50 | < 50 | > 9.70 |  |  |  | 
10 | CNc1cc(Nc2cccc3ocnc23)nc2c(C(=O)N[C@H]3CC[C@@H]3O)cnn12 [I-858, 5-(benzo[d]oxazol-4-ylamino)-N-((1S,2S)-2-hydroxycyclobutyl)-7-(methylamino)pyrazolo[1,5-a]pyrimidine-3-carboxamide] | < 50 | < 50 | > 9.70 |  |  |  | 
11 | NC(=O)c1cnn2c(N)cc(Nc3cccn(-c4ccc(F)cc4)c3=O)nc12 [I-25] |  |  | 9.00 to 9.70 |  |  | < 50 | < 50
12 | CNc1cc(Nc2cccn(C3CCN(CC(F)F)CC3)c2=O)nc2c(C(N)=O)cnn12 [I-67] |  |  | > 9.70 |  |  | < 50 | < 50
13 | CNc1cc(Nc2cccc([C@H]3CCCOC3)n2)nc2c(C(=O)NCC(C)(C)CO)cnn12 [I-579] |  |  | > 9.70 |  |  | < 50 | < 50
14 | CNc1cc(Nc2cccn(C3CCN(C)CC3)c2=O)nc2c(C(=O)NCC3(CO)CC3)cnn12 [I-543] |  |  | 9.00 to 9.70 |  |  | < 50 | < 50
15 | [2H]C([2H])([2H])Oc1ncccc1Nc1cc(NC)n2ncc(C(=O)N[C@H]3CCC[C@H](O)C3)c2n1 [I-498] |  |  | > 9.70 | A (percent inhibition at 10 μM lower than 50) | A (percent inhibition at 10 μM lower than 50) |  | 
16 | NC(=O)c1cnn2c(N)cc(Nc3cccn([C@H]4CC[C@H](O)CC4)c3=O)nc12 [I-50] |  |  | 9.00 to 9.70 |  |  | < 50 | < 50
17 | CNc1cc(Nc2cccn([C@@H]3CCCOC3)c2=O)nc2c(C(=O)NCC3(CO)CC3)cnn12 [I-700] |  |  | 9.00 to 9.70 |  |  | < 50 | < 50

Row | Compound | inhibition at 10 µM (JAK2 kinase domain (JH1); 10 μM compound, 10 μM ATP) [%] | inhibition at 10 µM (Tyk2 kinase domain (DH1); 10 μM compound, 10 μM ATP) [%] | pKd [1] | JAK2 JH1% Inhibition @ 10 μM (JAK2 kinase domain (JH1); compound at 10 μM, ATP 10 μM) | Tyk2 JH1% Inhibition @ 10 μM (Tyk2 kinase domain (DH1); compound at 10 μM, ATP 10 μM) | inhibition at 10 µM (JAK2 kinase domain (JH1); compound at 10 μM, ATP 10 μM) [%] | inhibition at 10 µM (Tyk2 kinase domain (DH1); compound at 10 μM, ATP 10 μM) [%]
18 | CNc1cc(Nc2cccnc2OC2CC2)nc2c(C(=O)N[C@H]3CCC[C@@H]3O)cnn12 [I-466, 5-((2-cyclopropoxypyridin-3-yl)amino)-N-((1S,2S)-2-hydroxycyclopentyl)-7-(methylamino)pyrazolo[1,5-a]pyrimidine-3-carboxamide] |  |  | 9.00 to 9.70 |  |  | < 50 | < 50
19 | CNc1cc(Nc2cccn([C@@H]3CCC[C@H](OC)C3)c2=O)nc2c(C(=O)NCC3(CO)CC3)cnn12 [I-929] | < 50 | < 50 | > 9.70 |  |  |  | 
20 | CNc1cc(Nc2cc(Cl)cn([C@H]3CCCOC3)c2=O)nc2c(C(=O)N[C@H]3[C@@H]4COC[C@@H]43)cnn12 [I-800] |  |  | 9.00 to 9.70 |  |  | < 50 | < 50
21 | CNc1cc(Nc2cccn([C@H]3CCCC[C@H]3OC)c2=O)nc2c(C(=O)NCC(C)(C)CO)cnn12 [I-1046] | < 50 | < 50 | > 9.70 |  |  |  | 
22 | CNc1cc(Nc2c(F)ccn(-c3nccs3)c2=O)nc2c(C(=O)N[C@H]3C[C@H]3F)cnn12 [I-624] |  |  | 9.00 to 9.70 |  |  | < 50 | 70 to 90
23 | CNc1cc(Nc2cccn([C@H]3CC[C@H](OC)CC3)c2=O)nc2c(C(=O)N[C@H]3CC[C@H]3O)cnn12 [I-561] |  |  | 9.00 to 9.70 | A (percent inhibition at 10 μM lower than 50) | A (percent inhibition at 10 μM lower than 50) |  | 
24 | CNc1cc(Nc2cccn(C3CCCN(CCC#N)C3)c2=O)nc2c(C(=O)N[C@@H]3C[C@@H]3F)cnn12 (stereo partly drawn) [I-912] | < 50 | < 50 | 9.00 to 9.70 |  |  |  | 
25 | Nc1cc(Nc2cccc(N3CCCC3=O)n2)nc2c(C(=O)NC3COC3)cnn12 [I-101, 7-amino-N-(oxetan-3-yl)-5-((6-(2-oxopyrrolidin-1-yl)pyridin-2-yl)amino)pyrazolo[1,5-a]pyrimidine-3-carboxamide] |  |  | < 8.00 |  |  | < 50 | < 50
26 | CNc1cc(Nc2cccn(-c3cncc(C)c3)c2=O)nc2c(C(=O)N[C@H]3C[C@H]3F)cnn12 [I-302] |  |  | > 9.70 |  |  | < 50 | < 50
27 | CNc1cc(Nc2cccnc2OC(F)F)nc2c(C(N)=O)cnn12 [I-152] |  |  | 9.00 to 9.70 |  |  | < 50 | < 50
28 | CNc1cc(Nc2cccn(CCOC3CC3)c2=O)nc2c(C(=O)N[C@@H]3CC[C@@H]3O)cnn12 [I-516] |  |  | 8.00 to 9.00 | A (percent inhibition at 10 μM lower than 50) | A (percent inhibition at 10 μM lower than 50) |  | 
29 | CNc1cc(Nc2cc(F)cnc2OC(C)C)nc2c(C(=O)NC3CC3)cnn12 [I-209] |  |  | 9.00 to 9.70 |  |  | < 50 | < 50
30 | CNc1cc(Nc2cccc([C@H]3CCCOC3)n2)nc2c(C(=O)N[C@H]3COC[C@H]3O)cnn12 [I-774] |  |  | 8.00 to 9.00 | A (percent inhibition at 10 μM lower than 50) | A (percent inhibition at 10 μM lower than 50) |  | 
31 | CNc1cc(Nc2cc(F)cn(C3CCN(C)CC3)c2=O)nc2c(C(=O)N[C@H]3C[C@H]3F)cnn12 [I-626] |  |  | > 9.70 |  |  | < 50 | < 50
32 | CNc1cc(Nc2cc(Cl)cn(C3CCOCC3)c2=O)nc2c(C(=O)N[C@@H]3CC[C@@H]3O)cnn12 [I-1069] | < 50 | < 50 | 9.00 to 9.70 |  |  |  | 
33 | CNc1cc(Nc2cccn(-c3ccc(CCN4CCOCC4)cc3)c2=O)nc2c(C(=O)N[C@H]3C[C@H]3F)cnn12 [I-308] |  |  | > 9.70 |  |  | < 50 | < 50
